In experiment [1] the target is T1, Alpha-1D adrenergic receptor (Homo sapiens, UniProt P25100).
T1 sequence (P25100 whole entry): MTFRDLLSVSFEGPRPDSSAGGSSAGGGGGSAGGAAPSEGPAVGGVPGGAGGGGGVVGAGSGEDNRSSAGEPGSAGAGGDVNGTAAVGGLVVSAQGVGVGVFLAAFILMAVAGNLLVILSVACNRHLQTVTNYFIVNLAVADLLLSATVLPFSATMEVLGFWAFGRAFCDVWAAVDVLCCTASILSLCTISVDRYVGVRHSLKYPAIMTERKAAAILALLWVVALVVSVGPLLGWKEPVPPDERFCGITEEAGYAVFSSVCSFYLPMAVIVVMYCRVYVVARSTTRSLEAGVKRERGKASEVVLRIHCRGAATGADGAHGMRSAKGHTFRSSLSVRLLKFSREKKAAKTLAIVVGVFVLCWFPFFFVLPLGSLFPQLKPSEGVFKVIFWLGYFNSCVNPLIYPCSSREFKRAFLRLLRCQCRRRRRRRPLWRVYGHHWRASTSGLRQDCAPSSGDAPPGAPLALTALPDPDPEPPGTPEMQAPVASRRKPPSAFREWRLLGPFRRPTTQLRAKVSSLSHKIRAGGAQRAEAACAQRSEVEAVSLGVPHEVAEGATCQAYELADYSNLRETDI
As to the kind of experiment: Displacement of [3H]prazosin from human Alpha-1D adrenergic receptor expressed in CHO cells. In kind it is cell-based.

Experiment [2] addresses T2, 5-hydroxytryptamine receptor 1A (Homo sapiens, UniProt P08908).
T2 sequence (P08908 whole entry): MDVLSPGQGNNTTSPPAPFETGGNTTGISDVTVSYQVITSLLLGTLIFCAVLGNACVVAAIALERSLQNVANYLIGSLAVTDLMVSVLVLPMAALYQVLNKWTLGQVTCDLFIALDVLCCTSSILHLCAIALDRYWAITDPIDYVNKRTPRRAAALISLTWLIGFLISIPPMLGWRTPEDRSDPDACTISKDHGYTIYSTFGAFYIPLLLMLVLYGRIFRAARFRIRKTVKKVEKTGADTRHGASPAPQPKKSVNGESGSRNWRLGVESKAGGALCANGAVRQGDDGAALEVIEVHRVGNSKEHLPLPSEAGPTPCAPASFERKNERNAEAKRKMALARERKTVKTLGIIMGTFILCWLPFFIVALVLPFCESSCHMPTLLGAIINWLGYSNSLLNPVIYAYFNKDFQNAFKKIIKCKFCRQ
As to the kind of experiment: Displacement of [3H]8-OH-DPAT from human 5-HT1A receptor expressed in human HeLa cells. In kind it is cell-based. In general terms: Loss of bound radioactivity is the signal in a displacement assay; it reports binding, not function.

In experiment [3] the test system is Vas deferens. As to the kind of experiment: Inhibition of noradrenaline-induced contraction in rat prostatic vas deferens. It counts as functional.
Experiment [4] relates to Spleen. As to the kind of experiment: Inhibition of noradrenaline-induced contraction in rat spleen. It counts as functional.
Experiment [5] has as its system Thoracic aorta. As to the kind of experiment: Inhibition of noradrenaline-induced contraction in rat thoracic aorta. In kind it is functional.
Experiment [6] is filed under the species Homo sapiens. As to the kind of experiment: Selectivity ratio of pKi for human 5-HT1A receptor to pKi for human alpha1 adrenergic receptor.
The target in experiment [7] is T3, 5-hydroxytryptamine receptor 1A (Homo sapiens) (UniProt P08908).
T3 sequence (whole entry): T2 sequence (P08908 whole entry)
As to the kind of experiment: Agonist activity at human recombinant 5HT1A receptor expressed in human HeLa cells by [35S]GTPgammaS binding assay relative to serotonin. It counts as functional, cell-based. On the technique in general: Binding of GTPγS marks nucleotide exchange on a G protein.

Experiment [8] addresses T3, 5-hydroxytryptamine receptor 1A (Homo sapiens). As to the kind of experiment: Agonist activity at human recombinant 5HT1A receptor expressed in human HeLa cells by [35S]GTPgammaS binding assay. It counts as functional, cell-based.
In experiment [9] the target is T4, Alpha-1A adrenergic receptor (Homo sapiens, UniProt P35348).
T4 sequence (P35348 whole entry): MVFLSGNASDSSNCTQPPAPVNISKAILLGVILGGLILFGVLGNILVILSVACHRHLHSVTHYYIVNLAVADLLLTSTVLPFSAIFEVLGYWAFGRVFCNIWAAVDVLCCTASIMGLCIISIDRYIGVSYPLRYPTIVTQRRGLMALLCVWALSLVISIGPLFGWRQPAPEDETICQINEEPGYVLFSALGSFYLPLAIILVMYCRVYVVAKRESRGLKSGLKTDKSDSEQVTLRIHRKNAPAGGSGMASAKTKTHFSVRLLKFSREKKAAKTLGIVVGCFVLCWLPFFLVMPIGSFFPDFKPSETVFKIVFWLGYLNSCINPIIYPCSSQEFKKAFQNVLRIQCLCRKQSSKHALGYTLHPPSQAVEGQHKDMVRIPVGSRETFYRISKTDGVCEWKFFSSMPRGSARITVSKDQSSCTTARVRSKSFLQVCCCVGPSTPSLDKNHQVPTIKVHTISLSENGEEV
As to the kind of experiment: Displacement of [3H]prazosin from human alpha1A adrenergic receptor expressed in CHO cells. It counts as cell-based.

Experiment [10] concerns the target T5, Alpha-1B adrenergic receptor (Homo sapiens, UniProt P35368).
T5 sequence (P35368 whole entry): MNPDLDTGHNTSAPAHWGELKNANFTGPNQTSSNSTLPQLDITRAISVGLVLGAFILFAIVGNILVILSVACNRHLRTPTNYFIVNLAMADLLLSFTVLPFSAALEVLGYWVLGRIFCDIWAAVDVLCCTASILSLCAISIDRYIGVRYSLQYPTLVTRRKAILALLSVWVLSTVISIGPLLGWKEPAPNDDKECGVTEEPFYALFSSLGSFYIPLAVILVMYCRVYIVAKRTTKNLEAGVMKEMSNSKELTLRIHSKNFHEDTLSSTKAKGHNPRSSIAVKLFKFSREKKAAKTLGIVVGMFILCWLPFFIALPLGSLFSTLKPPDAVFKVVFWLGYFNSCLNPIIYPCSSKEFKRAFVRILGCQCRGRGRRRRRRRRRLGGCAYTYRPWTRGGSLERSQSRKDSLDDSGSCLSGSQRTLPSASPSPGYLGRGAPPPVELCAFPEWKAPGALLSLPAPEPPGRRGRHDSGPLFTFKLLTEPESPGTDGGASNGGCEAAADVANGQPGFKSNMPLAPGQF
As to the kind of experiment: Displacement of [3H]prazosin from human Alpha-1B adrenergic receptor expressed in CHO cells. In kind it is cell-based.

As for `COc1cccc(OCCNCC2COC(c3ccccc3)(c3ccccc3)O2)c1` (racemic), the Ki in experiment [1] is 57.5 nM; in [2], 2.63 nM; in [9], 91.2 nM; in experiment [10] it was 58.9 nM. The negative logarithm of the Kb (pKb) is given as 5.75 in experiment [3], 5.79 in experiment [4] and 6.61 in experiment [5]. In addition, the Ratio pKi in experiment [6] amounted to 22. Besides, the Emax in experiment [7] is 14%. Further, the pD2 in [8] came out at 5.97.

Consider `c1ccc(-c2ccc(OCCNCC3COC(c4ccccc4)(c4ccccc4)O3)cc2)cc1` (racemic), for which the Ki in [1], in experiment [2], in experiment [9] and in experiment [10] was over 1000 nM throughout. In addition, the figures for the pKb in experiment [3], in [4] and in [5] were 5.65, 5.84 and 5.08, respectively.

Regarding `c1ccc(-c2cccc(OCCNCC3COC(c4ccccc4)(c4ccccc4)O3)c2)cc1` (racemic), the Ki in experiment [1] was over 1000 nM; in experiment [2], 28.8 nM; in experiment [9], over 1000 nM; in [10], over 1000 nM. The pKb is 5.19 in experiment [3], 6.21 in experiment [4] and under 5 in experiment [5]. Moreover, the Ratio pKi in experiment [6] was over 35.

As to `c1ccc(-c2ccccc2OCCNCC2COC(c3ccccc3)(c3ccccc3)O2)cc1` (racemic), the Ki in experiment [1] is 331 nM; in experiment [2], 2.19 nM; in [9], 490 nM; in experiment [10] it was over 1000 nM. Also, the values for the pKb in experiment [3], in experiment [4] and in [5] were under 5, 5.47 and 6.1, respectively. Also, the Ratio pKi in [6] was found to be 151. Moreover, the Emax in [7] is 73%. In addition, in experiment [8], the pD2 turned out to be 7.82.

Regarding `CC(C)Oc1ccccc1OCCNCC1COC(c2ccccc2)(c2ccccc2)O1` (racemic), the Ki was 6.31 nM in experiment [1], 1.7 nM in [2], 2.09 nM in experiment [9] and 20 nM in [10]. Moreover, the values for the pKb in [3], in experiment [4] and in experiment [5] were 7.25, 7.25 and 7.59, respectively. Moreover, the Ratio pKi in experiment [6] was 1. The Emax in experiment [7] was found to be 25%. In [8], the pD2 worked out at 9.08.

Consider `CCOc1ccccc1OCCNCC1COC(c2ccccc2)(c2ccccc2)O1` (racemic), for which the Ki was 6.76 nM in experiment [1], 0.891 nM in [2], 6.61 nM in experiment [9] and 53.7 nM in [10]. Further, the pKb in [3] was 7.23; in [4], 6.92; in [5], 7.91. Besides, in experiment [6], the Ratio pKi amounted to 7. Besides, the Emax in experiment [7] stood at 36%. Besides, in [8], the pD2 was 9.08.

On to `COc1cc(OC)cc(OCCNCC2COC(c3ccccc3)(c3ccccc3)O2)c1` (racemic), for which the inhibitory constant (Ki) is over 1000 nM in experiment [1], over 1000 nM in experiment [2], 302 nM in experiment [9] and 447 nM in experiment [10]. Further, the values for the pKb in experiment [3], in experiment [4] and in experiment [5] were 5.41, 5.49 and 6.77, respectively. In experiment [6], the Ratio pKi was 0.2.

Regarding `COc1ccc(OCCNCC2COC(c3ccccc3)(c3ccccc3)O2)cc1OC` (racemic), the Ki was over 1000 nM in [1], 97.7 nM in experiment [2], over 1000 nM in experiment [9] and 138 nM in experiment [10]. Moreover, the values for the pKb in experiment [3], in [4] and in [5] were 5.09, 6.01 and 6.9, respectively. The Ratio pKi in experiment [6] was 1.4.

Consider `COc1cccc(OCCNCC2COC(c3ccccc3)(c3ccccc3)O2)c1OC` (racemic), for which the Ki in experiment [1] is 355 nM; in experiment [2], 7.59 nM; in experiment [9], 85.1 nM; in [10] it was 174 nM. Moreover, the pKb in experiment [3] came out at 5.86; in experiment [4] it was 5.85; in [5], 6.64. In addition, the Ratio pKi in experiment [6] was 11.

Consider `COc1ccccc1OCCNCC1COC(c2ccccc2)(c2ccccc2)O1` (racemic), for which the Ki is 0.603 nM in experiment [2], 19.5 nM in experiment [9] and 46.8 nM in experiment [10]. The pKb in [3] is 7.53; in [4] it was 7.36; in [5], 8.65. Moreover, in [6], the Ratio pKi is 15. Also, the Emax in [7] is 32%. Further, in experiment [8], the pD2 is 7.36.

On to `c1ccc(OCCNCC2COC(c3ccccc3)(c3ccccc3)O2)cc1` (racemic), for which the affinity in experiment [2] corresponds to a Ki of 3.55 nM. Also, the pKb in experiment [3] is on record as 6.16; in experiment [4] it was 5.86; in experiment [5], 8.37. The Ratio pKi in experiment [6] was 3. The Emax in [7] stood at 24%. Further, the pD2 in [8] is 8.8.

For `Cc1ccccc1OCCNCC1COC(c2ccccc2)(c2ccccc2)O1` (racemic), the Ki in experiment [1] was 25.7 nM; in [2], 8.32 nM; in experiment [9], 117 nM; in experiment [10], 240 nM. Also, the pKb in experiment [3] came to 6.02; in [4], 5.73; in [5], 6.77. For the same compound, in experiment [6], the Ratio pKi amounted to 3.

For the compound `COc1cccc(OC)c1OCCNCC1COC(c2ccccc2)(c2ccccc2)O1` (racemic), the Ki in [1] was 182 nM; in experiment [2] it was 53.7 nM; in experiment [9], 100 nM; in experiment [10] it was 75.9 nM. The pKb in [3] is recorded as 5.73; in experiment [4], 5.89; in experiment [5], 6.93. For the same compound, the Ratio pKi in experiment [6] came to 14.

For `COc1ccc(OCCNCC2COC(c3ccccc3)(c3ccccc3)O2)cc1` (racemic), the pKb in [3] is under 5; in experiment [4], 6.25; in experiment [5] it was 6.94.

For the compound `COc1ccccc1CCCNCC1COC(c2ccccc2)(c2ccccc2)O1` (racemic), the Ki in experiment [1] was 50.1 nM; in experiment [2], 7.94 nM; in experiment [9] it was 49 nM; in [10], 41.7 nM. Also, the pKb was determined as 5.92 in experiment [3], 5.97 in [4] and 6.86 in [5]. Further, the Ratio pKi in [6] was determined as 6. In addition, the Emax in [7] amounted to 14%. Also, the pD2 in [8] stood at 5.92.

Turning to `CCCN(CCC)C1CCc2cccc(O)c2C1` (stereo not drawn) [8-OH-DPAT], the Ki in experiment [10] is over 1000 nM.

The compound `COc1ccccc1N1CCN(CCN2C(=O)CC3(CCCC3)CC2=O)CC1` [BMY-7378] yielded a pKb in [4] of 7.48. The Emax in [7] came out at 26%. Also, the pD2 in experiment [8] was 9.27.

Broadly, the Ki is a dissociation constant, usually derived from enzyme kinetics or from competition with a known ligand. Low readings indicate tighter binding, high ones weaker binding. By pKb is commonly meant the Kb on a negative log10 scale, so that one unit is a factor of ten. Read a high pKb as a low Kb. Usually Emax stands for the size of the effect at its maximum, as opposed to the concentration needed.

The values above are taken from ChEMBL document CHEMBL1155434, “Discovery of a new series of 5-HT1A receptor agonists” (Bioorg Med Chem Lett, 2010).
